Assay results as given in patent US20240316051A1, “A PHARMACEUTICAL COMBINATION AND USE THEREOF” (Ascentage Pharma (Suzhou) Co., Ltd., priority 2021, published 2024).

Target: T1, EED (1-441)-His protein (Homo sapiens, UniProt O75530)
T1 construct: 20 nM EED (1-441)-His protein
Assay: EED-H3K27Me3 peptide competition binding assay by AlphaScreen
Settings: Table 4A, read-out: Alpha screen
Description: EED-H3K27Me3 Peptide Competition Binding Assay by AlphaScreen (α-Screen):
The compounds at each concentration (2.5 μl of each) were transferred into a 384-well Perkin Elmer OptiPlate-384 white plates. 5 μl of solutions containing 20 nM EED (1-441)-His protein in the buffer (25 mM HEPES, pH 8, 0.02% Tween-20, 0.5% BSA) were added to the wells and then incubated with compound for 15 min. 2.5 μl of solutions containing 20 nM biotin-H3K27Me3 (19-33) peptide in the buffer (25 mM HEPES, pH 8, 0.02% Tween-20, 0.5% BSA) were added to the wells and then incubated with compound for 30 min. AlphaScreen detection beads mix was prepared immediately before use by mixing nickel chelate acceptor beads and streptavidin donor beads in a 1:1 ratio (Perkin Elmer, Product No. 6760619C/M/R) into the buffer described above. Then 10 μl of the detection beads mix was added to the plate and incubated in the dark at RT for 1 h. The final concentration of donor and acceptor beads was 10 μg/ml for each. Plates were read on CLARIOStar plate reader (BMG Labtech) using the AlphaScreen setting adapted for optimal signal detection with a 615 nm filter, after sample excitation at 680 nm. The emission signal at 615 nm was used to quantify compound inhibition. AlphaScreen signals were normalized based on the reading coming from the positive (maximum signal control) and negative controls (minimum signal control) to give percentage of activities left. The data were then fit to a dose response equation to get the IC50 values.

T1 sequence (O75530 whole entry): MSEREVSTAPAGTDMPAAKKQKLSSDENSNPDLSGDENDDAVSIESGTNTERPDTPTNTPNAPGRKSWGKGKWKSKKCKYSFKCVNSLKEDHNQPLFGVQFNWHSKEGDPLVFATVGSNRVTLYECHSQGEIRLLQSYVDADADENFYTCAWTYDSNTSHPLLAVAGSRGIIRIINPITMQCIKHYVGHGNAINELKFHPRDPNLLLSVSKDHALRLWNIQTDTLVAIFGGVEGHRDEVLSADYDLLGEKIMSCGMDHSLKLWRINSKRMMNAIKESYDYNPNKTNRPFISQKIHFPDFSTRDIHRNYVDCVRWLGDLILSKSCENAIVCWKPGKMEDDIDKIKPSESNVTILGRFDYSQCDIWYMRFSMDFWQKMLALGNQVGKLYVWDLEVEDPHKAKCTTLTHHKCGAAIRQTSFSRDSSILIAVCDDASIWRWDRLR

Row | Structure (SMILES) | IC50
1 | Cc1cccc(F)c1CNc1ncc2c3c(ncn13)COCc1ncccc1-2 [Compound 1, N-(2-fluoro-6-methylbenzyl)-3H,5H-4-oxa-2,6,11, 12a-tetraazabenzo[4,5]cycloocta[1,2,3-cd]inden-1 2-amine] | > 10 nM
2 | Fc1ccc2c(c1CNc1ncc3c4c(ncn14)COCc1ncccc1-3)CCO2 [Compound 2, N-((5-fluoro-2,3-dihydrobenzofuran-4-yl)methyl)-3H,5H-4-oxa-2,6,11,12a-tetraazabenzo[4,5]cycloocta[1,2,3-cd]inden-12-amine] | > 10 nM
3 | O=C1Nc2ccccc2-c2cnc(NCc3c(F)ccc4c3CCO4)n3cnc1c23 [Compound 3, 11-(((5-fluoro-2,3-dihydrobenzofuran-4-yl)methyl)amino)-2,4,10,11a-tetraazadibenzo[cd,f]azulen-3(4H)-one] | 6.88 nM
4 | O=C1OCc2cc(C(F)(F)F)ccc2-c2cnc(NCc3c(F)ccc4c3CCO4)n3cnc1c23 [Compound 8, 12-(((5-fluoro-2,3-dihydrobenzofuran-4-yl)methyl)amino)-7-(trifluoromethyl)-3H,5H-4-oxa-2,11,12a-triazabenzo[4,5]cycloocta[1,2,3-cd]inden-3-one] | 1.97 nM
5 | O=C1OCc2cc(F)ccc2-c2cnc(NCc3cccc4c3CCO4)n3cnc1c23 [Compound 9, 12-(((2,3-dihydrobenzofuran-4-yl)methyl)amino)-7-fluoro-3H,5H-4-oxa-2,11,12a-triazabenzo[4,5] cycloocta[1,2,3-cd]inden-3-one] | 0.84 nM
6 | O=C1OCc2ncccc2-c2cnc(NCc3c(F)ccc4occc34)n3cnc1c23 [Compound 10, 12-(((5-fluorobenzofuran-4-yl)methyl)amino)-3H, 5H-4-oxa-2,6,11,12a-tetraazabenzo[4,5]cycloocta [1,2,3-cd]inden-3-one] | 1.11 nM
7 | O=C1OCc2c(F)cccc2-c2cnc(NCc3c(F)ccc4c3CCO4)n3cnc1c23 [Compound 11, 6-fluoro-12-(((5-fluoro-2,3-dihydrobenzofuran-4-yl)methyl)amino)-3H,5H-4-oxa-2,11,12a-triazabenzo [4,5]cycloocta[1,2,3-cd]inden-3-one] | 0.75 nM
8 | O=C1OCc2cc(C(F)(F)F)ncc2-c2cnc(NCc3c(F)ccc4c3CCO4)n3cnc1c23 [Compound 13, 12-(((5-fluoro-2,3-dihydrobenzofuran-4-yl)methyl)amino)-7-(trifluoromethyl)-3H,5H-4-oxa-2,8,11, 12a-tetraazabenzo[4,5]cycloocta[1,2,3-cd]inden-3-one] | 1.09 nM
9 | O=C1OCc2nc(C(F)(F)F)ccc2-c2cnc(NCc3c(F)ccc4c3CCO4)n3cnc1c23 [Compound 14, 12-(((5-fluoro-2,3-dihydrobenzofuran-4-yl)methyl)amino)-7-(trifluoromethyl)-3H,5H-4-oxa-2,6,11, 12a-tetraazabenzo[4,5]cycloocta[1,2,3-cd]inden-3-one] | 3.35 nM
10 | O=C1NCc2ncccc2-c2cnc(NCc3c(F)ccc4c3CCO4)n3cnc1c23 [Compound 16, 12-(((5-fluoro-2,3-dihydrobenzofuran-4-yl)methyl)amino)-4,5-dihydro-3H-2,4,6,11,12a-pentaazabenzo[4,5]cycloocta[1,2,3-cd]inden-3-one] | 0.7 nM
11 | Cc1ccc2c(n1)COC(=O)c1ncn3c(NCc4c(F)ccc5c4CCO5)ncc-2c13 [Compound 18, 12-(((5-fluoro-2,3-dihydrobenzofuran-4-yl)methyl)amino)-7-methyl-3H,5H-4-oxa-2,6,11,12a-tetraazabenzo[4,5]cycloocta[1,2,3-cd]inden-3-one] | 0.7 nM
12 | O=C1NCc2cc(C(F)(F)F)ccc2-c2cnc(NCc3c(F)ccc4c3CCO4)n3cnc1c23 [Compound 19, 12-(((5-fluoro-2,3-dihydrobenzofuran-4-yl)methyl)amino)-7-(trifluoromethyl)-4,5-dihydro-3H-2,4,11, 12a-tetraazabenzo[4,5]cycloocta[1,2,3-cd]inden-3-one] | 1.13 nM
13 | O=C1NCc2cc(C(F)(F)F)ncc2-c2cnc(NCc3c(F)ccc4c3CCO4)n3cnc1c23 [Compound 22, 12-(((5-fluoro-2,3-dihydrobenzofuran-4-yl)methyl)amino)-7-(trifluoromethyl)-4,5-dihydro-3H-2,4,8, 11,12a-pentaazabenzo[4,5]cycloocta[1,2,3-cd] inden-3-one] | 0.67 nM
14 | O=C1NCc2ccc(F)cc2-c2cnc(NCc3c(F)ccc4c3CCO4)n3cnc1c23 [Compound 23, 8-fluoro-12-(((5-fluoro-2,3-dihydrobenzofuran-4-yl)methyl)amino)-4,5-dihydro-3H-2,4,11,12a-tetra azabenzo[4,5]cycloocta[1,2,3-cd]inden-3-one] | 1.18 nM

More lines, now with the values ahead:

Row | IC50 | Structure (SMILES)
15 | 0.26 nM | CS(=O)(=O)c1ccc2c(c1)NC(=O)c1ncn3c(NCc4c(F)ccc5c4CCO5)ncc-2c13 [Compound 5, 11-(((5-fluoro-2,3-dihydrobenzofuran-4-yl)methyl)amino)-6-(methylsulfonyl)-2,4,10,11a-tetraazadibenzo[cd,f]azulen-3(4H)-one]
16 | 0.19 nM | O=C1OCc2ccccc2-c2cnc(NCc3c(F)ccc4c3CCO4)n3cnc1c23 [Compound 6, 12-(((5-fluoro-2,3-dihydrobenzofuran-4-yl)methyl)amino)-3H,5H-4-oxa-2,11,12a-triazabenzo[4,5] cycloocta[1,2,3-cd]inden-3-one]
17 | 0.61 nM | O=C1OCc2cc(F)ccc2-c2cnc(NCc3c(F)ccc4c3CCO4)n3cnc1c23 [Compound 7, 7-fluoro-12-(((5-fluoro-2,3-dihydrobenzofuran-4-yl)methyl)amino)-3H,5H-4-oxa-2,11,12a-triazabenzo [4,5]cycloocta[1,2,3-cd]inden-3-one]
18 | 0.34 nM | O=C1OCc2ncccc2-c2cnc(NCc3c(F)ccc4c3CCO4)n3cnc1c23 [Compound 12, 12-(((5-fluoro-2,3-dihydrobenzofuran-4-yl)methyl)amino)-3H,5H-4-oxa-2,6,11,12a-tetraazabenzo[4,5]cycloocta[1,2,3-cd]inden-3-one]
19 | 0.52 nM | O=C1NCc2ccccc2-c2cnc(NCc3c(F)ccc4c3CCO4)n3cnc1c23 [Compound 15, 12-(((5-fluoro-2,3-dihydrobenzofuran-4-yl)methyl)amino)-4,5-dihydro-3H-2,4,11,12a-tetraazabenzo [4,5]cycloocta[1,2,3-cd]inden-3-one]
20 | 0.66 nM | O=C1NCc2cc(F)ccc2-c2cnc(NCc3c(F)ccc4c3CCO4)n3cnc1c23 [Compound 17, 7-fluoro-12-(((5-fluoro-2,3-dihydrobenzofuran-4-yl)methyl)amino)-4,5-dihydro-3H-2,4,11,12a-tetra azabenzo[4,5]cycloocta[1,2,3-cd]inden-3-one]
21 | 0.61 nM | O=C1NCc2c(F)cccc2-c2cnc(NCc3c(F)ccc4c3CCO4)n3cnc1c23 [Compound 20, 6-fluoro-12-(((5-fluoro-2,3-dihydrobenzofuran-4-yl)methyl)amino)-4,5-dihydro-3H-2,4,11,12a-tetra azabenzo[4,5]cycloocta[1,2,3-cd]inden-3-one]
22 | 0.55 nM | Cc1ccc2c(n1)CNC(=O)c1ncn3c(NCc4c(F)ccc5c4CCO5)ncc-2c13 [Compound 21, 12-(((5-fluoro-2,3-dihydrobenzofuran-4-yl)methyl)amino)-7-methyl-4,5-dihydro-3H-2,4,6,11,12a-pentaazabenzo[4,5]cycloocta[1,2,3-cd]inden-3-one]
